Results taken from PMC6522930, “Design, synthesis and biological activity evaluation of a new class of 2,4-thiazolidinedione compounds as insulin enhancers” (Journal of Enzyme Inhibition and Medicinal Chemistry, 2019).

Legend:
[1] = Dissociation degree (pKa); assay type: physicochemical
Excerpt: (§1) Drug in vitro experiment was one of the basic contents to evaluate drugs activity, and it was a necessary approach to research drugs. Drugs’ efficacy was often affected by some physical and chemical properties of compounds, such as lipid–water partition coefficient (log p), and dissociation degree (pKa). […] In Table 1, we could find that target compounds were fat-soluble. The fat-soluble compounds were favourable for drugs absorption, and drugs were easy to enter the cells. […] The pKa will affect the absorption and delivery of the drugs, different environmental (acid and alkalinity) medicine may be different, sometimes exists in the form of ions, sometimes exists in the form of molecules. Usually in the form of ion drugs has no effect. Therefore, it was necessary to study the dissociation degree (pKa) of drugs to study the pharmacodynamics. […] After the physical and chemical properties were studied, the biological activity was studied. […] After that, the target compounds 6a, 6e, 6f, 6g and 6i had good biological activity and were preliminarily screened out for further study on PPARγ receptor agonist activity (Figure 5).

[2] = Acute toxicity test (LD50); assay type: in vivo; details: oral administration; n ≥ 3
[3] = Lipid–water partition coefficient (log p); assay type: physicochemical
Excerpt: as §1

PPARα = biological target: T1, PPARα (Homo sapiens, UniProt Q07869); experiment: In vitro activation of PPARα (cells containing PPAR, EC50); assay type: cell-based; details: n ≥ 8, 24 h; for EC50: read-out: EC50 ± SD PPARα
T1 construct: expressed in transfected cells
T1 sequence (Q07869 1-468): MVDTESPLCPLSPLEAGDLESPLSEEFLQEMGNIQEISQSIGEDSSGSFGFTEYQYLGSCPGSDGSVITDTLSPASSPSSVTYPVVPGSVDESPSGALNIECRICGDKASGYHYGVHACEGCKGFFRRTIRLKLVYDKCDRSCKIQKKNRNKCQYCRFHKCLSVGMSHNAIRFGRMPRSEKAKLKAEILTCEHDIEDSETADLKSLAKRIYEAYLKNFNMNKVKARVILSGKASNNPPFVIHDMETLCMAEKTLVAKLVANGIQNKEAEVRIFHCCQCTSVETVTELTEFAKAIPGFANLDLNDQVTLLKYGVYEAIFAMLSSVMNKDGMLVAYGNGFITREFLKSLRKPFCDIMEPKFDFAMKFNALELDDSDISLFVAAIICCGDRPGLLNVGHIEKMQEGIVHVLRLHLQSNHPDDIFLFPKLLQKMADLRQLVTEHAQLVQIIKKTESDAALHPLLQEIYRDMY
Description: (§2) According to the literature, the cells containing PPAR (α, β and γ) were obtained and transfected into 96-well plates the day before for cells culture. Transfection was performed according to the instructions of human PPAR enzyme-linked immunoassay. […] After 24 h, the drugs were added, and 20 μl of MTT was added to each well for another 6 h, and the cell liquid was collected by removing the culture medium, and 150 μl of DMSO was added to each hole. And the absorbance value (A) of each hole was measured under the wavelength of 460 nm.

HUVEC cells = experiment: Cell survival experiment (cytotoxicity); assay type: cell-based; details: for Cell survival rate: HUVEC cells
Description: (§3) (1) Glucose tolerance test: The healthy mice (20 ± 2 g) were selected. After 1 week of acclimation, mice with no body surface damage, good general condition and flexible reaction were selected for the experiment. The test compounds were dissolved with DMSO, and were given a dose volume of 0.2 ml 10 g^−1, and a dose of 10 mg kg^−1, and given by gavage (oral) once a day. […] The mice were given the drug for 10 d, and after the last dose, the mice fasted for 12 h. The next day, blood was collected from the tail vein of the mice before and after the sugar load for 1 h and 2 h, and the blood glucose level of the mice before and after the sugar load was measured by the glucometer. […] The 12 h of fasting after the last administration, blood was taken from the orbital venous plexus (used to measure the blood glucose level after fasting). Each group was immediately given a subcutaneous injection of 0.2 μg kg^−1 of insulin. After 1 h and 2 h of injection, blood was taken again. (3) Cell survival experiment: The HUVEC cells were inoculated on the 96-well plate at the initial concentration of 3 × 10^3 cells/holes, and 100 μl RPMI 1640 medium were added to each hole. At 5% CO2 and 37 °C cell cultivation in 24 h, every pore solution in different concentrations. […] And determine the hole under 460 nm wavelength absorbance value (A).

PPARγ = biological target: T2, PPARγ (Homo sapiens, UniProt P37231); experiment: In vitro activation of PPARγ (cells containing PPAR, EC50); assay type: cell-based; details: n ≥ 8; 24 h; read-out: EC50 ± SD PPARγ
T2 construct: expressed in transfected cells
T2 sequence (P37231 1-505): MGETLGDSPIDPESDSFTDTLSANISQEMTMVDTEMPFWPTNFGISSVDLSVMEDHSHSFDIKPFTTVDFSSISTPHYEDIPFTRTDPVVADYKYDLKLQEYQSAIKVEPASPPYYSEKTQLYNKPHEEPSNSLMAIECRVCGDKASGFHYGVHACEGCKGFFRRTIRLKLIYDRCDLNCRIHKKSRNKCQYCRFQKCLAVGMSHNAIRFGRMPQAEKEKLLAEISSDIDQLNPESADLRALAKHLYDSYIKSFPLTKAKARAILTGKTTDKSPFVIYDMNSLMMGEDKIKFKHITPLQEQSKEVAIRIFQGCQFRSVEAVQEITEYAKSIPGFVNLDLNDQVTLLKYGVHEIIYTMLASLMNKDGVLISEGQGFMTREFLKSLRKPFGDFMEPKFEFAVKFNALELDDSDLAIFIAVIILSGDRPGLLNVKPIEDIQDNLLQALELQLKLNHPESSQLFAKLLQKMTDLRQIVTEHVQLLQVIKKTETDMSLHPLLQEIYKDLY
Description: as §2

healthy mice [4] = experiment: Insulin tolerance test (blood glucose under insulin load); assay type: in vivo
Description: as §3

healthy mice [5] = experiment: Oral glucose tolerance test; assay type: in vivo
Description: In vivo experiments, glucose tolerance test, insulin tolerance test, cell survival experiment and acute toxicity were used as the test indicators (Tables 2, [3] and [4]). In Table 2, we chose dose 10 mg kg^−1 d^−1 and used oral administration. […] The mice were given the drug for 10 d, blood was collected from the tail vein of the mice before and after the sugar load for 1 h and 2 h, and the blood glucose level of the mice before and after the sugar load was measured by the glucometer.
as §3

PPARβ = biological target: T3, PPARβ (Homo sapiens, UniProt Q03181); experiment: In vitro activation of PPARβ (cells containing PPAR, EC50); assay type: cell-based; details: n ≥ 8; 24 h; read-out: EC50 ± SD PPARβ
T3 construct: expressed in transfected cells
T3 sequence (Q03181 1-441): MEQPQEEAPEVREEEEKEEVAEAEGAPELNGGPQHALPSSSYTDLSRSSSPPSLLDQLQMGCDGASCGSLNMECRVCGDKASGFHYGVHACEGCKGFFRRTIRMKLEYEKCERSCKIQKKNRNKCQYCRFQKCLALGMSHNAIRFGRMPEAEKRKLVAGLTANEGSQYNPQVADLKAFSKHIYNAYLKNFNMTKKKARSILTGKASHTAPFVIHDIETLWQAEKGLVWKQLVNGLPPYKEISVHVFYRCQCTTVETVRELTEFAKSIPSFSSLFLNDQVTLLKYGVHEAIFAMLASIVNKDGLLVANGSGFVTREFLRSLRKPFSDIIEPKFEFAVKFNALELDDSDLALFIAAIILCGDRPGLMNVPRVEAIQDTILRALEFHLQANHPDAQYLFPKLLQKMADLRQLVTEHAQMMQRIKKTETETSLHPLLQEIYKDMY
Description: as §2

Row | SMILES | pKa [1] | logP [3] | EC50 (PPARγ) [nM] | EC50 (PPARβ) [µM] | EC50 (PPARα) [µM] | other results
1 | O=C1NC(=O)C(Cc2ccc(OCCNC(=O)c3ccccc3)cc2)S1 (stereo not shown) [Compound 6a, N-(2–(4-((2,4-dioxothiazolidin-5-yl)methyl)phenoxy)ethyl) benzamide] | 10.4 | 2.68 | 80 ± 20 |  |  | LD50 ± SD [2]: 2313.6 ± 1.26 mg/kg; EC50 ± SD PPARα (PPARα): ia^b; Cytotoxic effect (in words) (HUVEC cells; 10^−3–10^−2 mol L^−1): no obvious cytotoxic effect; Cell survival rate (HUVEC cells; 10^−2 mol l^−1): 93.1 ± 1.21%; Cell survival rate (HUVEC cells; 10^−3 mol l^−1): 98.1 ± 0.28%; Cell survival rate (HUVEC cells; 10^−4 mol l^−1): 99.3 ± 0.26%; Cell survival rate (HUVEC cells; 10^−5 mol l^−1): 99.9 ± 0.11%; Cell survival rate (HUVEC cells; 10^−6 mol l^−1): 100%; Effect in insulin tolerance test (in words) (healthy mice [4]; 10 mg kg^−1 d^−1): good resistance activation to insulin; Blood glucose levels 1 h (healthy mice [4]; 10 mg kg^−1 d^−1 for 15 d, 1 h after s.c. insulin 0.2 μg kg^−1): 1.801 ± 0.531 mmol/L; Blood glucose levels 2 h (healthy mice [4]; 10 mg kg^−1 d^−1 for 15 d, 2 h after s.c. insulin 0.2 μg kg^−1): 2.498 ± 1.136 mmol/L; Blood glucose levels 0 h (healthy mice [4]; 10 mg kg^−1 d^−1 for 15 d, fasted 12 h, before insulin): 5.644 ± 1.035 mmol/L; Blood glucose levels 1 h (healthy mice [5]; 10 mg kg^−1 d^−1 oral for 10 d, 1 h after sugar load): 6.342 ± 2.011 mmol/L; Blood glucose levels 2 h (healthy mice [5]; 10 mg kg^−1 d^−1 oral for 10 d, 2 h after sugar load): 3.368 ± 1.341 mmol/L; Blood glucose levels 0 h (healthy mice [5]; 10 mg kg^−1 d^−1 oral for 10 d, fasted 12 h, before sugar load): 3.376 ± 0.361 mmol/L; Effect in glucose tolerance test (in words) (healthy mice [5]; 10 mg kg^−1 d^−1 oral, 10 d): good resistance activation to glucose
2 | O=C1NC(=O)C(Cc2ccc(OCCNC(=O)c3ccccn3)cn2)S1 (stereo not shown) [Compound 6d, N-(2-((6-((2,4-dioxothiazolidin-5-yl)methyl)pyridin-3-yl)oxy)ethyl) picolinamide] | 9.78 | 1.38 | 3220 ± 650 | 12.2 ± 1.21 |  | 
3 | O=C1NC(=O)C(Cc2ccc(OCCNC(=O)c3ccccc3)cn2)S1 (stereo not shown) [Compound 6b, N-(2-((6-((2,4-dioxothiazolidin-5-yl)methyl)pyridin-3-yl)oxy)ethyl) benzamide] | 10.4 | 1.77 | 1290 ± 530 | 9.18 ± 0.89 | 12.9 ± 1.29 | 

More lines, main results first:

Row | pKa [1] | logP [3] | EC50 (PPARγ) [nM] | EC50 (PPARβ) [µM] | EC50 (PPARα) [µM] | SMILES | other results
4 | 9.01 | 2.11 | 340 ± 150 | 14.5 ± 1.2 |  | O=C1NC(=O)C(Cc2ccc(OCCNC(=O)c3ccc(O)cc3)cn2)S1 (stereo not shown) [Compound 6j, N-(2-((6-((2,4-dioxothiazolidin-5-yl)methyl)pyridin-3-yl)oxy)ethyl)-4-hydroxybenzamide] | 
5 | 8.58 | 1.45 | 2680 ± 460 | 10.1 ± 1.12 | 9.34 ± 1.01 | O=C1NC(=O)C(Cc2ccc(OCCNC(=O)c3ccc(O)cn3)cn2)S1 (stereo not shown) [Compound 6l, N-(2-((6-((2,4-dioxothiazolidin-5-yl)methyl)pyridin-3-yl)oxy)ethyl)-5-hydroxypicolinamide] | 
